From ChEMBL document CHEMBL3046422, “Insecticidal activity of imidacloprid derivatives with an alkoxy group at the C5 position of the pyridine ring” (2006)

Tests used:
Type in all cases: functional
[1] = test system: Periplaneta americana; assay: Insecticidal activity against adult male Periplaneta americana (American cockroach) dosed through injection into abdomen assessed as mortality measured 24 hr post dose pre-treated with 50 ug metabolic inhibitor PB and 50 ug NIA16388 1 hr before compound injection
[2] = test system: Periplaneta americana; assay: Insecticidal activity against adult male Periplaneta americana (American cockroach) dosed through injection into abdomen assessed as mortality measured 24 hr post dose pre-treated with 50 ug metabolic inhibitor PB 1 hr before compound injection
[3] = test system: Periplaneta americana; assay: Insecticidal activity against adult male Periplaneta americana (American cockroach) dosed through injection into abdomen assessed as mortality measured 24 hr post dose

Structure (SMILES) | log(1/MLD) [1] | log(1/MLD) [2] | log(1/MLD) [3]
CCCOc1cc(CN2CCN/C2=N\[N+](=O)[O-])cnc1Cl | 6.89 | 6.89 | <6.86
O=[N+]([O-])/N=C1\NCCN1Cc1cnc(Cl)c(Cl)c1 [5-CHLOROIMIDACLOPRID] | 9.05 | 9.05 | 8.35
COc1cc(CN2CCN/C2=N\[N+](=O)[O-])cnc1Cl | 8.74 | 8.74 | 7.43
CC(C)Oc1cc(CN2CCN/C2=N\[N+](=O)[O-])cnc1Cl | 8.1 | 7.89 | 6.99
CCCCCOc1cc(CN2CCN/C2=N\[N+](=O)[O-])cnc1Cl | 6.46 | 6.46 | 5.86
O=[N+]([O-])/N=C1\NCCN1Cc1ccc(Cl)nc1 [IMIDACLOPRID] | 10.15 | 10.15 | 8.96
CCOc1cc(CN2CCN/C2=N\[N+](=O)[O-])cnc1Cl | 8.08 | 7.87 | 7.07
CCCCOc1cc(CN2CCN/C2=N\[N+](=O)[O-])cnc1Cl | 8.12 | 8.12 | 7.12
O=[N+]([O-])/N=C1/NCCN1Cc1cnc(Cl)c(F)c1 [5-FLUOROIMIDACLOPRID] | 9.91 | 9.91 | 8.82
